This note sets out measurements from patent US20250383357A1, “NOVEL FLUORESCENT DYES AND POLYMERS FROM DIHYDROPHENANTHRENE DERIVATIVES” (Beckman Coulter, Inc., priority 2022, published 2025).

Each structure is given as a SMILES string.

This series can be described thus: Fluorescence properties of DHP-cyanine dyes (excitation/absorbance and emission maxima, extinction coefficient). Type of series: physicochemical. To be noted: for λem (emission wavelength) / λex (maximum excitation wavelength): Table 1. The text has this:
The term “absorbance maxima” or “Abs λ max” or “max λ abs” refer to wavelength of maximum absorbance measured by UV Vis spectroscopy.

Turning to `CC1(C)Cc2c3c(cc4c2C(C)(C)C(/C=C/C=C/C=C2\N(CCCCCC(=O)O)c5ccc(S(=O)(=O)O)cc5C2(C)C)=[N+]4CCCS(=O)(=O)O)S(=O)(=O)c2cc(S(=O)(=O)O)cc1c2-3` [Compound 36, 2-((l1-oxidaneyl)dioxo-l6-sulfaneyl)-7-((1E,3E)-5-((Z)-5-((l1-oxidaneyl)dioxo-l6-sulfaneyl)-1-(5-carboxypentyl)-3,3-dimethylindolin-2-ylidene)penta-1,3-dien-1-yl)-6-(3-((l1-oxidaneyl)dioxo-l6-sulfaneyl)propyl)-8,8,10,10-tetramethyl-9,10-dihydro-8H-thieno[2′,3′,4′,5′:4,5]phenanthro[2,1-b]pyrrol-6-ium 4,4-dioxide], the “λem (emission wavelength)” value is 683 nm and the “λex (maximum excitation wavelength)” value amounted to 663 nm. Where the note is “purified dye”, the Abs max turned out to be 663 nm and the emission max was 683 nm.

Turning to `CC1(C)C(/C=C/C=C/C=C2\N(CCCS(=O)(=O)O)c3ccc(C(=O)O)cc3C2(C)C)=[N+](CCCS(=O)(=O)O)c2cc3c4c(c21)CCc1cc(S(=O)(=O)[O-])cc(c1-4)S3(=O)=O` [Compound 25, (Z)-2-((2E,4E)-5-(2-((l1-oxidaneyl)dioxo-l6-sulfaneyl)-6-(3-((l1-oxidaneyl)dioxo-l6-sulfaneyl)propyl)-8,8-dimethyl-4,4-dioxido-9,10-dihydro-8H-6l4-thieno[2′,3′,4′,5′:4,5]phenanthro[2,1-b]pyrrol-7-yl)penta-2,4-dien-1-ylidene)-1-(3-((l1-oxidaneyl)dioxo-l6-sulfaneyl)propyl)-3,3-dimethylindoline-5-carboxylic Acid], the “λem (emission wavelength)” value is 686 nm and the “λex (maximum excitation wavelength)” value came to 666 nm. Further, for the setting “purified dye”, the Abs max stood at 666 nm, the emission max is given as 686 nm and the extinction coefficient came to 150450 M⁻¹ cm⁻¹.
